Results: patent publication US20260131009A1, “BIFUNCTIONAL PI3K-ALPHA INHIBITORS AND USES THEREOF” (Relay Therapeutics, Inc., priority 2021, published 2026)

Molecular target: PI3Kα (Homo sapiens, UniProt P42336, H1047R)
Test: ADP-Glo IC50 assay
Type: biochemical
Details: class symbols; key not given

PI3Kα, sequence (P42336 whole entry H1047R): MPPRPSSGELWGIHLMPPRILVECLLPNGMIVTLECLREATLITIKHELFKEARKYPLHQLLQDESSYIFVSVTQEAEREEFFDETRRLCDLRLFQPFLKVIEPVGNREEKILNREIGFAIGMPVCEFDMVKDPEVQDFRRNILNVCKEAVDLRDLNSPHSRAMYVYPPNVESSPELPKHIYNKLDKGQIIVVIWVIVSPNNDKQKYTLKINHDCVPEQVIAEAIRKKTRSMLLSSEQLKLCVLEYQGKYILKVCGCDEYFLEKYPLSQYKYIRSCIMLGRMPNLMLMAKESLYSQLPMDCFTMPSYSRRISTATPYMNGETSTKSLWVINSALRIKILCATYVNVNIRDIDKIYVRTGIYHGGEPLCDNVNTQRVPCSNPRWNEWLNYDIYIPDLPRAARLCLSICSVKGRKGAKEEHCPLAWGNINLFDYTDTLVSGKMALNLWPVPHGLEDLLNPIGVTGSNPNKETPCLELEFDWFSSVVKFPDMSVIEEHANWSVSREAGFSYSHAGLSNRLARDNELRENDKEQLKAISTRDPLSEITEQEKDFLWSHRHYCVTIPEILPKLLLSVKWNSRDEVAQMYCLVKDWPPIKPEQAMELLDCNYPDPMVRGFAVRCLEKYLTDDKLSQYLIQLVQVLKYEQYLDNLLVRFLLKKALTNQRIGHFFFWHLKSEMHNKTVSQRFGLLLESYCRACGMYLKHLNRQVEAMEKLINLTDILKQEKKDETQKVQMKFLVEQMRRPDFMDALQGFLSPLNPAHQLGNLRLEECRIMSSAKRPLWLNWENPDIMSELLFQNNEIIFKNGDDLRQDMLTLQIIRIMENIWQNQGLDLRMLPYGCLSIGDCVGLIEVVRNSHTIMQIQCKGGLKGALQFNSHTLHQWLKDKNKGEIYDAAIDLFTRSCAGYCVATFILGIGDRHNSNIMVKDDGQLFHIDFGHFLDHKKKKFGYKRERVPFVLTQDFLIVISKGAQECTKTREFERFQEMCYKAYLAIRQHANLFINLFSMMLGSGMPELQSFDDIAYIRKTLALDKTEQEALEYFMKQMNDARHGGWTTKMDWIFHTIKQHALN
PI3Kα, sequence (P27986 whole entry partner): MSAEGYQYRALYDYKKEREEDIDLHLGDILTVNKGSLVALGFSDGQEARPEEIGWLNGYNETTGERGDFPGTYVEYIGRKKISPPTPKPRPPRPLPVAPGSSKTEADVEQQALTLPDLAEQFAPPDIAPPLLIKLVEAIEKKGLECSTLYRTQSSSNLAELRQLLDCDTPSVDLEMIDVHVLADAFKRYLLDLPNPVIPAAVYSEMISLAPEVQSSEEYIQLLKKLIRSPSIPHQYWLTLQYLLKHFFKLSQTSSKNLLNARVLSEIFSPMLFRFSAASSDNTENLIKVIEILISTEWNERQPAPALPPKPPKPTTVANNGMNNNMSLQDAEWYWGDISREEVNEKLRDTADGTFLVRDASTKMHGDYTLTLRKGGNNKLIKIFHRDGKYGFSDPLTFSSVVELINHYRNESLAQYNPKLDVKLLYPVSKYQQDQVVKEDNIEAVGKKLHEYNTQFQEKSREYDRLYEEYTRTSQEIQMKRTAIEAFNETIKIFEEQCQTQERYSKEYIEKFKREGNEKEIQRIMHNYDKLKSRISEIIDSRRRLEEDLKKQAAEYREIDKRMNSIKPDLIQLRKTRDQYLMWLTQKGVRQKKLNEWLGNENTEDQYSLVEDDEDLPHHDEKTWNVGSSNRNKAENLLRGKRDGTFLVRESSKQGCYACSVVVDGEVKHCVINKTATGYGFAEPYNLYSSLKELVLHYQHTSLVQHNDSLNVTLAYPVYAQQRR

IC50	SMILES
500 to 1000 nM	Cc1ncsc1-c1ccc(CNC(=O)[C@@H]2C[C@@H](O)CN2C(=O)[C@@H](NC(=O)CCCCCCCCCNC(=O)c2cc(NC(=O)c3nsc4ccccc34)c3n2CC(=O)N[C@H]3c2cc(F)ccc2Cl)C(C)(C)C)cc1 [Example I-105]
< 100 nM	Cc1cc([C@@H](C)Nc2ccccc2)c2oc(N3CCN(C(=O)CCOCCOCCNC(=O)c4cnc(Nc5ccccc5C)c(NC(=O)c5csc6ccccc56)c4)CC3)cc(=O)c2c1 [Example I-111]
100 to 500 nM	Cc1ccccc1Nc1ncc(C(=O)NCCCCCCCC(=O)N[C@H](C(=O)N2C[C@H](O)C[C@H]2C(=O)NCc2ccc(-c3scnc3C)cc2)C(C)(C)C)cc1NC(=O)c1csc2ccccc12 [Example I-18]
1000 to 10000 nM	Cc1cc([C@H](C)Nc2ccccc2C(=O)O)c2oc(N3CCN(C(=O)CCCCCNc4cccc5c4C(=O)N(C4CCC(=O)NC4=O)C5=O)CC3)cc(=O)c2c1 (stereo partly drawn) [Example I-137]
1000 to 10000 nM	Cc1cc([C@H](C)Nc2ccccc2)c2oc(N3CCN(C(=O)CCOCCOCCNC(=O)c4cnc(Nc5ccccc5C)c(NC(=O)c5csc6ccccc56)c4)CC3)cc(=O)c2c1 [Example I-112]
500 to 1000 nM	Cc1ncsc1-c1ccc(CNC(=O)[C@@H]2C[C@@H](O)CN2C(=O)[C@@H](NC(=O)CCCCCCCCCNC(=O)c2cc(NC(=O)c3cc(F)cc(C(F)(F)F)c3)c3c(c2)C(=O)N[C@H]3c2cc(F)ccc2Cl)C(C)(C)C)cc1 [Example I-71]
500 to 1000 nM	O=C1CCC(N2C(=O)c3ccc(NCCCCCCCNC(=O)c4cc(NC(=O)c5cc(F)cc(C(F)(F)F)c5)c5c(c4)C(=O)N[C@@H]5c4cc(F)ccc4Cl)cc3C2=O)C(=O)N1 (stereo partly drawn) [Example I-89]
1000 to 10000 nM	Cc1cc([C@@H](C)Nc2ccccc2C(=O)O)c2oc(N3CCN(C(=O)CCOCCNc4ccc5c(c4)C(=O)N(C4CCC(=O)NC4=O)C5=O)CC3)cc(=O)c2c1 (stereo partly drawn) [Example I-144]
< 100 nM	O=C1CCC(N2C(=O)c3ccc(NCCCCCCCNC(=O)c4cc(NC(=O)c5cc(F)cc(C(F)(F)F)c5)c5c(c4)C(=O)N[C@H]5c4cc(F)ccc4Cl)cc3C2=O)C(=O)N1 (stereo partly drawn) [Example I-90]
100 to 500 nM	Cc1ccccc1Nc1ncc(C(=O)NCCCCCCCCNC(=O)c2ccc3c(c2)CN(C2CCC(=O)NC2=O)C3=O)cc1NC(=O)c1csc2ccccc12 (stereo not drawn) [Example I-21]
500 to 1000 nM	Cc1ncsc1-c1ccc([C@H](C)NC(=O)[C@@H]2C[C@@H](O)CN2C(=O)[C@@H](NC(=O)CCCCCCCCCNC(=O)c2cc(NC(=O)c3cc(F)cc(C(F)(F)F)c3)c3c(c2)C(=O)N[C@H]3c2cc(F)ccc2Cl)C(C)(C)C)cc1 [Example I-88]
< 100 nM	O=C1CCC(N2C(=O)c3ccc(NCCCCCNC(=O)c4cc(NC(=O)c5cc(F)cc(C(F)(F)F)c5)c5c(c4)C(=O)N[C@H]5c4cc(F)ccc4Cl)cc3C2=O)C(=O)N1 (stereo partly drawn) [Example I-85]
100 to 500 nM	Cc1cc(Br)c2oc(N3CCN(C(=O)CCCCCNC(=O)c4cnc(Nc5ccccc5C)c(NC(=O)c5csc6ccccc56)c4)CC3)cc(=O)c2c1 [Example I-101]
1000 to 10000 nM	O=C1CCC(N2Cc3cc(C(=O)NCCCCCCCCCNC(=O)c4cc(NC(=O)c5cccc(F)c5)c5c(c4)C(=O)N[C@@H]5c4cc(F)ccc4Cl)ccc3C2=O)C(=O)N1 (stereo partly drawn) [Example I-161]
1000 to 10000 nM	Cc1cc([C@@H](C)Nc2ccccc2C(=O)O)c2oc(N3CCN(C(=O)CCOCCNc4cccc5c4C(=O)N(C4CCC(=O)NC4=O)C5=O)CC3)cc(=O)c2c1 (stereo partly drawn) [Example I-145]
100 to 500 nM	O=C1CCC(N2Cc3cc(C(=O)NCCCCCCCNC(=O)c4cnc(Nc5cc(F)ccc5Cl)c(NC(=O)c5csc6ccccc56)c4)ccc3C2=O)C(=O)N1 (stereo not drawn) [Example I-66]
100 to 500 nM	O=C1CCC(N2C(=O)c3ccc(NCCCNC(=O)c4cnc(Nc5cc(F)ccc5Cl)c(NC(=O)c5csc6ccccc56)c4)cc3C2=O)C(=O)N1 (stereo not drawn) [Example I-99]
1000 to 10000 nM	Cc1cc([C@H](C)Nc2ccccc2C(=O)O)c2oc(N3CCN(C(=O)CCNc4cccc5c4C(=O)N(C4CCC(=O)NC4=O)C5=O)CC3)cc(=O)c2c1 (stereo partly drawn) [Example I-134]
500 to 1000 nM	Cc1ccccc1Nc1ncc(C(=O)NCCCCC(=O)N[C@H](C(=O)N2C[C@H](O)C[C@H]2C(=O)NCc2ccc(-c3scnc3C)cc2)C(C)(C)C)cc1NC(=O)c1csc2ccccc12 [Example I-43]
< 100 nM	O=C1CCC(N2Cc3cc(C#CCNC(=O)c4cc(NC(=O)c5cc(F)cc(C(F)(F)F)c5)c5c(c4)C(=O)N[C@@H]5c4cc(F)ccc4Cl)ccc3C2=O)C(=O)N1 (stereo partly drawn) [Example I-102]
500 to 1000 nM	Cc1ccccc1Nc1ncc(C(=O)NCCCCC(=O)N[C@H](C(=O)N2C[C@H](O)C[C@H]2C(=O)N[C@@H](C)c2ccc(-c3scnc3C)cc2)C(C)(C)C)cc1NC(=O)c1csc2ccccc12 [Example I-65]
< 100 nM	O=C(O)CCCCCCCCCNC(=O)c1cc(NC(=O)c2cc(F)cc(C(F)(F)F)c2)c2c(c1)C(=O)N[C@@H]2c1cc(F)ccc1Cl [Example I-76]
100 to 500 nM	O=C1CCC(N2Cc3cc(C(=O)NCCCCCCCNC(=O)c4cc(NC(=O)c5cc(F)cc(C(F)(F)F)c5)c5c(c4)C(=O)N[C@@H]5c4cc(F)ccc4Cl)ccc3C2=O)C(=O)N1 (stereo partly drawn) [Example I-80]
100 to 500 nM	Cc1ccccc1Nc1ncc(C(=O)NCCCNc2cccc3c2C(=O)N(C2CCC(=O)NC2=O)C3=O)cc1NC(=O)c1csc2ccccc12 (stereo not drawn) [Example I-51]

IC50	SMILES
1000 to 10000 nM	O=C1CCC(N2Cc3cc(C(=O)NCCCCCCCCCCNC(=O)c4cc(NC(=O)c5cccc(C(F)(F)F)c5)c5c(c4)C(=O)N[C@@H]5c4cc(F)ccc4Cl)ccc3C2=O)C(=O)N1 (stereo partly drawn) [Example I-154]
500 to 1000 nM	O=C(CCCCCCCNC(=O)c1cc(NC(=O)c2cc(F)cc(C(F)(F)F)c2)c2c(c1)C(=O)N[C@@H]2c1cc(F)ccc1Cl)NCc1ccc2c(c1)CN(C1CCC(=O)NC1=O)C2=O (stereo partly drawn) [Example I-92]
1000 to 10000 nM	Cc1cc(Br)c2oc(N3CCN(C(=O)CCOCCOCCNC(=O)c4cnc(Nc5ccccc5C)c(NC(=O)c5csc6ccccc56)c4)CC3)cc(=O)c2c1 [Example I-91]
100 to 500 nM	Cc1ccccc1Nc1ncc(C(=O)NCCCC#Cc2ccc3c(c2)CN(C2CCC(=O)NC2=O)C3=O)cc1NC(=O)c1csc2ccccc12 (stereo not drawn) [Example I-44]
500 to 1000 nM	O=C1CCC(N2C(=O)c3ccc(NCCCCCNC(=O)c4cc(NC(=O)c5cc(F)cc(C(F)(F)F)c5)c5c(c4)C(=O)N[C@@H]5c4cc(F)ccc4Cl)cc3C2=O)C(=O)N1 (stereo partly drawn) [Example I-75]
< 100 nM	O=C1CCC(N2C(=O)c3ccc(NCCCCNC(=O)c4cc(NC(=O)c5cc(F)cc(C(F)(F)F)c5)c5c(c4)C(=O)N[C@H]5c4cc(F)ccc4Cl)cc3C2=O)C(=O)N1 (stereo partly drawn) [Example I-100]
100 to 500 nM	NC(=O)CCCCCCCCCNC(=O)c1cnc(Nc2cc(F)ccc2Cl)c(NC(=O)c2csc3ccccc23)c1 [Example I-68]
1000 to 10000 nM	Cc1ccccc1Nc1ncc(C(=O)NCCOCCOCCC(=O)N[C@H](C(=O)N2C[C@H](O)C[C@H]2C(=O)N[C@@H](C)c2ccc(-c3scnc3C)cc2)C(C)(C)C)cc1NC(=O)c1csc2ccccc12 [Example I-40]
500 to 1000 nM	O=C1CCC(N2C(=O)c3ccc(NCCCCNC(=O)c4cc(NC(=O)c5cc(F)cc(C(F)(F)F)c5)c5c(c4)C(=O)N[C@@H]5c4cc(F)ccc4Cl)cc3C2=O)C(=O)N1 (stereo partly drawn) [Example I-94]
< 100 nM	O=C1CCC(N2Cc3cc(C(=O)NCCCCCCCNC(=O)c4cc(NC(=O)c5cc(F)cc(C(F)(F)F)c5)c5c(c4)C(=O)N[C@H]5c4cc(F)ccc4Cl)ccc3C2=O)C(=O)N1 (stereo partly drawn) [Example I-77]
10000 to 100000 nM	Cc1ccccc1Nc1ncc(C(=O)NCCOCCOCCOCCOCCOCCOCCC(=O)NCc2ccc3c(c2)CN(C2CCC(=O)NC2=O)C3=O)cc1NC(=O)c1csc2ccccc12 (stereo not drawn) [Example I-52]
< 100 nM	Cc1cc([C@@H](C)Nc2ccccc2C(=O)O)c2oc(N3CCN(C(=O)CCOCCOCCNC(=O)c4cnc(Nc5ccccc5C)c(NC(=O)c5csc6ccccc56)c4)CC3)cc(=O)c2c1 [Example I-125]
1000 to 10000 nM	Cc1cc([C@H](C)Nc2ccccc2C(=O)O)c2oc(N3CCN(C(=O)CCCCCCCNc4cccc5c4C(=O)N(C4CCC(=O)NC4=O)C5=O)CC3)cc(=O)c2c1 (stereo partly drawn) [Example I-136]
1000 to 10000 nM	O=C(O)CCCCCCCCCNC(=O)c1cc(NC(=O)c2cc(F)cc(C(F)(F)F)c2)c2c(c1)C(=O)N[C@H]2c1cc(F)ccc1Cl [Example I-86]
500 to 1000 nM	Cc1ccccc1Nc1ncc(C(=O)NCCCCCCNc2cccc3c2C(=O)N(C2CCC(=O)NC2=O)C3=O)cc1NC(=O)c1csc2ccccc12 (stereo not drawn) [Example I-59]
< 100 nM	O=C1CCC(N2C(=O)c3ccc(NCCCNC(=O)c4cc(NC(=O)c5cc(F)cc(C(F)(F)F)c5)c5c(c4)C(=O)N[C@H]5c4cc(F)ccc4Cl)cc3C2=O)C(=O)N1 (stereo partly drawn) [Example I-98]
100 to 500 nM	Cc1cc(Br)c2oc(N3CCN(C(=O)CCCCCCNC(=O)c4cnc(Nc5ccccc5C)c(NC(=O)c5csc6ccccc56)c4)CC3)cc(=O)c2c1 [Example I-108]
< 100 nM	O=C1CCC(N2Cc3cc(C(=O)NCCCCCCCCCNC(=O)c4cc(NC(=O)c5csc6ccccc56)c5c(c4)C(=O)NC5c4cc(F)ccc4Cl)ccc3C2=O)C(=O)N1 (stereo not drawn) [Example I-159]
1000 to 10000 nM	Cc1cc([C@H](C)Nc2ccccc2C(=O)O)c2oc(N3CCN(C(=O)CCNc4ccc5c(c4)C(=O)N(C4CCC(=O)NC4=O)C5=O)CC3)cc(=O)c2c1 (stereo partly drawn) [Example I-130]
1000 to 10000 nM	O=C1CCC(N2Cc3cc(C(=O)NCCOCCOCCOCCOCCOCCOCCOCCOCCOCCOCCOCCOCCNC(=O)c4cc(NC(=O)c5cc(F)cc(C(F)(F)F)c5)c5c(c4)C(=O)N[C@@H]5c4cc(F)ccc4Cl)ccc3C2=O)C(=O)N1 (stereo partly drawn) [Example I-153]
1000 to 10000 nM	O=C1CCC(N2Cc3cc(C(=O)NCCCCCCCCNC(=O)c4cc(NC(=O)c5cccc(C(F)(F)F)c5)c5c(c4)C(=O)N[C@@H]5c4cc(F)ccc4Cl)ccc3C2=O)C(=O)N1 (stereo partly drawn) [Example I-150]
500 to 1000 nM	Cc1ccccc1Nc1ncc(C(=O)NCCOCCOCCOCCOCCC(=O)N[C@H](C(=O)N2C[C@H](O)C[C@H]2C(=O)NCc2ccc(-c3scnc3C)cc2)C(C)(C)C)cc1NC(=O)c1csc2ccccc12 [Example I-14]
500 to 1000 nM	Cc1cc([C@@H](C)Nc2ccccc2C(=O)O)c2oc(N3CCN(C(=O)CCCNc4cccc5c4C(=O)N(C4CCC(=O)NC4=O)C5=O)CC3)cc(=O)c2c1 (stereo partly drawn) [Example I-141]
1000 to 10000 nM	Cc1cc([C@H](C)Nc2ccccc2C(=O)O)c2oc(N3CCN(C(=O)CCCNc4cccc5c4C(=O)N(C4CCC(=O)NC4=O)C5=O)CC3)cc(=O)c2c1 (stereo partly drawn) [Example I-133]
